Legend:
SARS-CoV-2 [1] = type: cell-based
[2] = system: Wuhan-Hu-1 spike-pseudotyped virus; experiment: microbe, parasite or virus in culture; type: cell-based, SARS-CoV-2
Vero cells = experiment: Endosomal pH change test with acridine orange; type: cell-based; details: 1 µM for 1 h
Protocol: This image-based experiment was performed according to our previous report with some modifications. Vero cells were cultured in a glass bottom 35 mm dish (6 × 10^4 cells per well) overnight. Each compound, including 1 µM UNC3230, apilimod or UNI418, was added to Vero cells for 1 h at 37 °C. The cells were stained with acridine orange (Sigma‒Aldrich, A9231) at a final concentration of 4 µg/mL for 30 min. After washing with PBS twice, images were acquired using a confocal microscope (Zeiss LSM 700, Baden-Württemberg, Germany) at two emission wavelengths, 493 to 560 nm and 590 to 720 nm, with excitation at 488 nm. The green-to-red ratio or vacuole size was measured using the built-in software ZEN 3.1.
Fig. 3 UNI418 negatively affects autophagosome-lysosome fusion and endosome acidification. a Live-cell imaging of HEK293T cells stably expressing mCherry-GFP-LC3 treated with 0.5 μM UNI418 at the indicated time points; the images within the white rectangular boxes are magnified on the right side. Scale bar, 30 µm. The number (b) and area (c) of GFP-positive dots per cell were quantified by ImageXpress. d Immunofluorescence images illustrating the inhibition of endolysosomal acidification by UNI418. Vero cells were treated with the mock control or 1 µM UNC3230, apilimod or UNI418 for 1 h at 37 °C. Acridine orange (4 µg/mL) was added to the compound-treated live cells, followed by additional incubation for 30 min. The cells were analyzed by confocal microscopy using two emission wavelengths at 493–560 (green) and 590–720 nm (red) after excitation at 488 nm. Merged images are presented, and images within the white rectangular boxes are magnified on the right side. Original magnification, 630×. The green-to-red fluorescence intensity ratio (e) and the area of fluorescent spots (f) were quantified. b, c, e, f The data are presented as the means ± SEMs, with a minimum of 200 spots. Statistical significance was determined by Student’s t test; *p < 0.05, **p < 0.01, ***p < 0.001 and ****p < 0.0001. n.s., not significant.

[3] = system: ACE2-mediated endocytosis in HEK293T cells; type: cell-based; details: 0.5 μM compound, 20 μg/mL spike-RBD, 2 h
cathepsin D = experiment: Cathepsin D maturation by Western blot; type: cell-based
SARS-CoV-2 [4] = experiment: microbe, parasite or virus in culture; type: cell-based, SARS-CoV-2 (hCoV-19/Korea/KCDC06/2020); details: for EC50: Severe acute respiratory syndrome coronavirus 2, Vero, 48 h, read-out: EC50 (reducing number of spike-positive cells by 50%); for selectivity index (SI), ratio of CC50 to EC50: Vero cells, Day 2
RPE1 cells = experiment: Western blot of autophagy-monitoring proteins SQSTM1/p62 and LC3-II; type: cell-based
Description: Fig. 2 UNI418 inhibits autophagy. a Western blot analysis of p62, LC3B-I, LC3B-II and GAPDH in the presence of UNC3230, apilimod and UNI418. b Immunofluorescence staining with LC3B (green) and p62 (red) antibodies upon treatment with UNC3230, apilimod and UNI418, and images within the white rectangular boxes are magnified on the right side. Scale bar, 20 µm. c The area of fluorescence intensity from immunofluorescence images (b) was quantified after UNC3230, apilimod and UNI418 treatments. d, e Quantification of autophagic flux under normal conditions and under HBSS-induced starvation conditions with or without UNI418 treatment. RPE1 cells were treated with UNI418 (0.5 µM or 1 µM) for 2 h in the presence or absence of a lysosomal inhibitor (bafilomycin A1, BFA). Representative Western blot images (d) and the graph showing the average of 4 independent experiments (e). The error bars indicate the S.D. Statistical analysis was performed using two-way ANOVA; *p < 0.05, ***p < 0.001.
Supplementary Materials and Methods
The whole cell extracts were prepared by lysis of harvested cells with M -PER Mammalian protein extraction reagent (Thermo Fisher Scientific). The protein concentrations were determined by Bradford protein assay (Bio- Rad). The 10 to 20 μ g of prepared proteins were separated by the SDS-PAGE and transferred to PVDF membrane, which were then blocked in 5% skim milk for 30 minutes at room temperature. […] The images were obtained and quantified by Fusion solo ChemiDoc system (Vilber).
Autophagic flux assay was analyzed essentially as previously described1,2.
Briefly, RPE1 cells were treated with UNI418 (0, 0.5, or 1 µM) for 2 h with/without bafilomycin A1 to inhibit lysosomal degradation under normal growth media or HBSS. […] The LC3- II bands were quantified using Fusion Solo ChemiDoc system (Vilber) and normalized to GAPDH bands.
Autophagy flux was calculated by subsidizing the lysosomal inhibitor-treated cells to non- treatment cells in both normal growth media and HBSS-induced starvation with 0, 0.5, or 1 µM UNI418. […]

in vitro = details: African green monkey

Compound: Cc1cccc(/C=N/Nc2cc(N3CCOCC3)nc(OCCc3ccccn3)n2)c1 [apilimod]
- reduction in the levels of the viral NP gene (viral genome copies) (SARS-CoV-2 [1]): approximately 2 log
- IC50 ([2]; Severe acute respiratory syndrome coronavirus 2, 293T/ACE2, read-out: concentration that inhibited spike-mediated viral entry by 50% compared to maximal inhibition): 5 nM
- green-to-red ratio of fluorescent spots relative to mock-treated sample (Vero cells): 2.2 fold
- ACE2-mediated endocytosis triggered by spike-RBD [3]: did not obviously inhibit
- proteolytic cleavage (maturation) of cathepsin D (cathepsin D): largely inhibited
- EC50 (SARS-CoV-2 [4]): 300 nM
- selectivity index (SI), ratio of CC50 to EC50 (SARS-CoV-2 [4]): 272.6
- accumulation of SQSTM1/p62 and LC3-II (RPE1 cells): strongly induced
- CC50 (in vitro): 73.6 µM

Compound: c1ccc(-c2cc(Nc3nc(-c4ccncc4)nc4ccccc34)n[nH]2)cc1 [UNI418, N -(5-phenyl-1 H -pyrazol-3-yl)-2-(4-pyridinyl)-4-quinazolinamine]
- reduction in the levels of the viral NP gene (viral genome copies) (SARS-CoV-2 [1]): approximately 2 log
- pseudotyped virus entry [2]: markedly inhibited
- green-to-red ratio of fluorescent spots relative to mock-treated sample (Vero cells): 6.3 fold
- ACE2-mediated endocytosis triggered by spike-RBD [3]: successfully inhibited
- proteolytic cleavage (maturation) of cathepsin D (cathepsin D): considerably inhibited
- EC50 (SARS-CoV-2 [4]): 1400 nM
- selectivity index (SI), ratio of CC50 to EC50 (SARS-CoV-2 [4]): 45.6
- accumulation of SQSTM1/p62 and LC3-II (RPE1 cells): strongly induced
- CC50 (in vitro): 62.3 µM
